One compound from patent US20250304952A1, “DNA ELEMENT RESPONSIVE TO EXTRACHROMOSOMAL DNA IN CANCER CELLS” (The Board of Trustees of the Leland Stanford Junior …, priority 2021, published 2025) can be followed below.

The test system of one test is ecDNA+ COLO320-DM cells. Put plainly: PVT1 promoter-driven NanoLuc luciferase reporter in COLO320-DM. The format is cell-based, human. To be noted: JQ1 500 nM, 6 hours. The text has this: We constructed a plasmid containing the 2 kb PVT1 promoter (chr8: 128,804,981-128,806,980, hg19) or the MYC promoter (chr8: 128,745,990-128,748,526, hg19) driving NanoLuc luciferase (PVT1p-nLuc) and a constitutive thymidine kinase (TK) promoter driving Firefly luciferase as an internal control (FIG. 3b). Briefly, pGL4-tk-luc2 (Promega) was digested with KpnI and PciI. A sequence containing multiple cloning sites ([…]), NanoLuc and BGH polyA sequence were inserted in tandem into the vector using Gibson assembly (NEBuilder DNA assembly mix). Next, the PVT1 promoter or the MYC promoter was inserted into the vector via NheI and SalI digestion to generate the final reporter construct. For the negative control, a minimal promoter ([…]) was used in place of the PVT1 promoter. For constructing plasmids with a cis-enhancer, an enhancer (chr8: 128347148-128348310, hg19; positive H3K27ac mark and looping to the PVT1 promoter in HiChIP, overlapping with BRD4 ChIP peak and ATAC-seq peak in COLO320-DM) was inserted directly 5′ to the promoter into the region with multiple cloning sites. […] Luciferase levels were quantified using Nano-Glo Dual reporter luciferase assay (Promega). The reporter level was calculated as the ratio of NanoLuc reading over firefly reading using Tecan M1000. Mean and standard errors were calculated based on three biological replicates with three technical replicate each.

A further test concerns MYC in SNU16. In words: Oncogene RNA measured by RT-qPCR in SNU16 (MYC). The class given is cell-based, human. The settings on record: 500 nM JQ1, 6 hours. On the procedure: Cells were then treated for 6 hours with 500 nM JQ1 in DMSO unless otherwise indicated (Sigma-Aldrich SML1524) or an equivalent volume of DMSO.
RNA was extracted using RNeasy Plus mini Kit (QIAGEN 74136). Purified RNA was quantified by Nanodrop (Thermo Fisher). For RT-qPCR, 50 ng of RNA, 1× Brilliant II qRT-PCR mastermix with 1 μL RT/RNase block (Agilent 600825), and 200 nM forward and reverse primer were used. Each Ct value was measured using Lightcycler 480 (Roche) and each mean dCt was averaged from duplicate qRT-PCR reaction and performed in biological triplicate. Relative MYC RNA level (RT-qPCR primers MYC_exon3_fw and MYC_exon3_rv) was calculated by ddCt method compared to 18S and GAPDH controls (RT-qPCR primers GAPDH_fw, GAPDH_rv, 18S_fw, 18S_rv). P values were calculated using a Student's t-test by comparing the relative fold change of biological triplicates.

With `Cc1sc2c(c1C)C(c1ccc(Cl)cc1)=N[C@@H](CC(=O)OC(C)(C)C)c1nnc(C)n1-2` [JQ1], the “repression of PVT1p-mediated transcription” value in the test on ecDNA+ COLO320-DM cells was approximately 5 fold. In addition, in the test with MYC in SNU16, the “ecDNA-derived transcription of MYC” value is “reduced”.
